Reference: patent publication US20250213581A1, “COMBINATION THERAPY OF A PI3K INHIBITOR AND KRAS INHIBITOR AND METHODS OF USE THEREOF” (Totus Medicines Inc., priority 2022, published 2025)

How the values were obtained:
[1] = tested on: SW1463 (rectum) cell lines; experiment: Cell proliferation assay and synergy analysis, Compound I with Adagrasib; settings: Homo sapiens, SW1463, 72 h, read-out: Ave Inhibition (%)
Description: (§4) The cell lines tested included: UM-UC-3 (bladder), KYSE-410 (HN/Esophagus), SW1463 (rectum), Calu-1 (Lung), NCI-H358 (Lung), SW837 (Rectum), SW756 (Cervix), NCI-H2122 (Lung), NCI-H1373 (Lung), NCI-H1792 (Lung), NCI-H23 (Lung), MIA PaCa-2 (Pancreas), and HCC44 (Lung).
(§5) Cells were recovered and maintained in appropriate culture media. The cells were harvested respectively during the logarithmic growth period. The cells were then resuspended and counted using a Vi cell counter (The cell viability was measured by trypan blue exclusion assay). The cells were then diluted and 80 μL of the cell suspensions were added to 96-well plates according to plate map with final cell density. Two duplicate plates were set up. One is for day 0 reading (T0) and the other was cultured in the incubator for reading at the end point. The incubated plates were incubated overnight in humidified incubator at 37° C. with 5% CO2.
(§6) At day 0, 20 μL of culture medium was added to each well for T0 reading. 10 μL of culture medium was added to each well for day 0 (T0) reading. Then, 50 μl of CellTiter-Glo® Reagent was added to each well. The contents were then mixed for 2 minutes on an orbital shaker to facilitate cell lysis. The plates were then allowed to incubate at room temperature for 10 minutes to stabilize luminescent signal. Luminescence was then recorded using an EnVision Multi Label Reader. […] The screening plates were then placed back into the incubator for the appropriate treatment time (3 days).
(§7) For the endpoint CTG reading, 50 μL of CellTiter-Glo® Reagent was added to each well. The contents were then mixed for 2 minutes on an orbital shaker to facilitate cell lysis. The plate was allowed to incubate at room temperature for 10 minutes to stabilize luminescent signal. Luminescence was then recorded using an EnVision Multi Label Reader. The surviving rate (%)=(LumTest article−LumMedium control)/(LumNone treated−LumMedium control)×100%.
(§8) A score higher than 5 indicates synergy, and a score less than −5 indicates antagonism.

[2] = tested on: SW756 (Cervix) cell lines; experiment: as above; settings: Homo sapiens, SW756, 72 h, read-out: Ave Inhibition (%)
Description: as §4, §5, §6, §7, §8

Calu-1 (Lung) = experiment: Cell proliferation assay (CellTiter-Glo, 3 days), single agent; type: cell-based; settings: Homo sapiens, Calu-1, 72 h, read-out: Absolute IC50 (μM)
Description: (§1) Two duplicate plates were set up.
(§2) At day 0, 10 μL culture medium to each well for T0 reading. […] Compound I was diluted and 10 μL of each 10× compound I from working solutions for a concentration ranging from 10 μM to about 0.005 μM. Cisplatin was diluted to about 3.33 mM to about 150 nM.
(§3) IC50's were determined for each cell line.

NCI-H1792 (Lung) = experiment: as above; type: cell-based; settings: Homo sapiens
Description: as §1, §2, §3

UM-UC-3 (bladder) = experiment: as above; type: cell-based; settings: Homo sapiens, UMUC3, 72 h, read-out: Absolute IC50 (μM)
Description: as §1, §2, §3

NCI-H23 (Lung) = experiment: as above; type: cell-based; settings: Homo sapiens
Description: as §1, §2, §3

MIA PaCa-2 (Pancreas) = experiment: as above; type: cell-based; settings: Homo sapiens
Description: as §1, §2, §3

NCI-H358 (Lung) = experiment: as above; type: cell-based; settings: 3 days treatment
Description: as §1, §2, §3

HCC44 (Lung) = experiment: as above; type: cell-based; settings: Homo sapiens, HCC44, read-out: Average Inhibition (%) (N = 3)
Description: as §1, §2, §3

SW837 (Rectum) = experiment: as above; type: cell-based; settings: Homo sapiens, SW837, 72 h, read-out: Absolute IC50 (μM)
Description: as §1, §2, §3

NCI-H2122 (Lung) = experiment: as above; type: cell-based; settings: Homo sapiens, NCI-H2122, read-out: Average Inhibition (%) (N = 3)
Description: as §1, §2, §3

NCI-H1373 (Lung) = experiment: as above; type: cell-based; settings: Homo sapiens
Description: as §1, §2, §3

[3] = tested on: NCI-H358 (Lung) cell lines; experiment: Cell proliferation assay and synergy analysis, Compound I with Adagrasib; settings: Homo sapiens, NCI-H358, 72 h, read-out: Ave of Inhibition (%)
Description: as §4, §5, §6, §7, §8

[4] = tested on: SW837 (Rectum) cell lines; experiment: as above; settings: Homo sapiens, SW837, 72 h, read-out: Ave of Inhibition (%)
Description: as §4, §5, §6, §7, §8

Calu-1 (Lung) cell lines = experiment: as above; settings: Homo sapiens, Calu-1, 72 h, read-out: Ave of Inhibition (%)
Description: as §4, §5, §6, §7, §8

PI3K = biological target: T1, PI3K (Homo sapiens, UniProt P42336); experiment: NanoBRET screening (binding assay) in transfected HEK293 cells; settings: overnight incubation, washout
T1 construct: expressed in transfected cells; host or cells: HEK293 (Gibco 293-H), transient transfection with FuGENE HD
T1 sequence (P42336 whole entry): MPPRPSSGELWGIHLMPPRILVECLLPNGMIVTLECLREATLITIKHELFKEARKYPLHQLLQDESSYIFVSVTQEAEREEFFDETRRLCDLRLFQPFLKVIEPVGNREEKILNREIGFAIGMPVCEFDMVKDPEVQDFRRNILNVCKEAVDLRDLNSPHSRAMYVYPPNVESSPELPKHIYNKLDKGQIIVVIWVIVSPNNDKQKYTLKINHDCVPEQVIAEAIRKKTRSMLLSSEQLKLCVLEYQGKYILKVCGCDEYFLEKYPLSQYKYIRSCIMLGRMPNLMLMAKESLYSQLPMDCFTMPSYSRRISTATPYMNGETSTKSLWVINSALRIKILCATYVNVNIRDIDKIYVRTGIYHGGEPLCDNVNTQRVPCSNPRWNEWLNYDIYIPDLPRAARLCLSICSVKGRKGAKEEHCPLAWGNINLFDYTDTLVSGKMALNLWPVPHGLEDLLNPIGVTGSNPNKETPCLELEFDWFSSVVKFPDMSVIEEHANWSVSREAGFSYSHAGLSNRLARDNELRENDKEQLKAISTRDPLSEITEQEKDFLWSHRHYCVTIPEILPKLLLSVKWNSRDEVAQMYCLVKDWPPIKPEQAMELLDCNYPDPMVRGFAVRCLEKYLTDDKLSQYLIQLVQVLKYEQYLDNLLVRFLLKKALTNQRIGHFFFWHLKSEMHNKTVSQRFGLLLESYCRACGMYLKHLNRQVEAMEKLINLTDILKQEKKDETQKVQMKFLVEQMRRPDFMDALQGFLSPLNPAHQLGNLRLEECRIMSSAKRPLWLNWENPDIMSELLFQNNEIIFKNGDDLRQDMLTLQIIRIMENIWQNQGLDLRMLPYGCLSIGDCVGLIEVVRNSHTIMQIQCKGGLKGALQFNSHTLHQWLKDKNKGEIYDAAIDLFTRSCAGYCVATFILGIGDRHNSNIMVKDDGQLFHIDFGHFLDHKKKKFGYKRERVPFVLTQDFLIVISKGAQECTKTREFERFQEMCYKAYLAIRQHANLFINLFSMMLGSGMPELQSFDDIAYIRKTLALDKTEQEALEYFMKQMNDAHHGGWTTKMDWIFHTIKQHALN
T1 sequence (P27986 whole entry partner): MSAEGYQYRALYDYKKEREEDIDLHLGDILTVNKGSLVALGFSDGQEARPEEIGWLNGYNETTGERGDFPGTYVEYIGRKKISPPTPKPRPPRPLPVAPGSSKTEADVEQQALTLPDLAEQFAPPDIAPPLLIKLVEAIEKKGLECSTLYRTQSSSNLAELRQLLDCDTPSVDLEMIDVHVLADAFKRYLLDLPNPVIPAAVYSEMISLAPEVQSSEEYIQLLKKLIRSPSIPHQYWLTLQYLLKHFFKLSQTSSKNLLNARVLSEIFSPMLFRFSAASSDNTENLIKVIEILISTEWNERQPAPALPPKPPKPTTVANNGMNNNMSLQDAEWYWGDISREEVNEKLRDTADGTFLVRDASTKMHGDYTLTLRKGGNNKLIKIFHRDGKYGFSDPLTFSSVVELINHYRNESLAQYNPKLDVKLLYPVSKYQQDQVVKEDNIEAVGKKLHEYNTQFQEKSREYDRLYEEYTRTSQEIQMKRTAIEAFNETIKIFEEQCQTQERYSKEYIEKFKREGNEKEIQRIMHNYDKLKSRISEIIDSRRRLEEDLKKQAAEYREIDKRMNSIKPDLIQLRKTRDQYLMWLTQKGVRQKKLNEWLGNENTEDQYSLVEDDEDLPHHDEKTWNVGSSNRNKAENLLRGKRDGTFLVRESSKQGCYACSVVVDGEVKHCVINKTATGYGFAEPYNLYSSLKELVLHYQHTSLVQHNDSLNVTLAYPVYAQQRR
Description: Human embryonic kidney 293-H (HEK 293, Gibco 293-H, #11631017) cell lines were maintained in Dulbecco's Modified Eagle Medium, high glucose, pyruvate (DMEM, Gibco, #11995065) supplemented with 10% fetal bovine serum (FBS, Gibco, #10082147) and 1× penicillin-streptomycin (100× solution, Gibco, #15140148) at 37° C. and 5% CO2 in a water-saturated incubator. […] Opti-MEM media supplemented with 10% fetal bovine serum (Opti-MEM I reduced serum media, no phenol red, Gibco, #11058021) was used for culturing cells overnight for NanoBRET readout experiments.
HEK293 cells were cultivated appropriately prior to assay. The medium from cell flask was removed via aspiration, washed 1× with PBS followed by aspiration, trypsinized, and cells were allowed to dissociate from the flask. Trypsin was neutralized using growth medium and cells were pelleted via centrifugation at 200×g for 5 minutes. The medium was aspirated and the cells were resuspended into a single cell suspension using Opti-MEM I supplemented with 10% FBS. The cell density was adjusted to 2×10^5/mL in Opti-MEM I supplemented with 10% FBS in a sterile, conical tube. […]
A 10 μg/mL solution of DNA was prepared in Opti-MEM without serum. […] The plate on plate reader is read every hour for the next 6 hours.

[5] = tested on: KYSE-410 (HN/Esophagus) cell lines; experiment: Cell proliferation assay and synergy analysis, Compound I with Adagrasib; settings: Homo sapiens, KYSE-410, 72 h, read-out: Ave inhibition (%)
Description: as §4, §5, §6, §7, §8

[6] = tested on: UM-UC-3 (bladder) cell lines; experiment: as above; settings: Homo sapiens, UMUC3, 72 h, read-out: Ave Inhibition rate (%)
Description: as §4, §5, §6, §7, §8

[7] = NCI-H1792, read-out: Average Inhibition (%) (N = 3)
[8] = NCI-H23, read-out: Average Inhibition (%) (N = 3)
[9] = MIA PaCa-2, read-out: Average Inhibition (%) (N = 3)
[10] = NCI-H1373, read-out: Average Inhibition (%) (N = 3)

`C=CC(=O)NCC(=O)N1CCN(Cc2cc3c(N4CCOCC4)nc(-c4cnc(NC(=O)OC)cc4C(F)(F)F)nn3c2)CC1` [Compound I, methyl (5-(6-((4-(acryloylglycyl)piperazin-1-yl)methyl)-4-morpholinopyrrolo[2,1-f][1,2,4]triazin-2-yl)-4-(trifluoromethyl)pyridin-2-yl)carbamate] gave an inhibition at 0.0046 µM [1] of 4.57%, an inhibition at 0.0137 µM [1] of 2.64% and an inhibition at 0.0412 µM [1] of 6.01%. It also gave an inhibition at 0.1235 µM [1] of 15.7%, an inhibition at 0.3704 µM [1] of 21.8% and an inhibition at 1.1111 µM [1] of 29.5%. It also gave an inhibition at 3.3333 µM [1] of 40.4%, an inhibition at 10 µM [1] of 48.4% and an inhibition at 0.0046 µM [2] of -1.03%. It also gave an inhibition at 0.0137 µM [2] of -0.86%, an inhibition at 0.0412 µM [2] of 1.55% and an inhibition at 0.1235 µM [2] of 4.83%. The inhibition at 0.3704 µM [2] was 8.26%, the inhibition at 1.1111 µM [2] was 14.3% and the inhibition at 3.3333 µM [2] was 21.6%. For the same molecule, the inhibition at 10 µM [2] was 34.6%, the IC50 (Calu-1 (Lung)) was > 10 µM and the IC50 (NCI-H1792 (Lung); NCI-H1792, 72 h, read-out: Absolute IC50 (μM)) was > 10 µM. It also gave an inhibition at 0.0046 µM (NCI-H1792 (Lung); [7]) of -7.35%, an inhibition at 0.0137 µM (NCI-H1792 (Lung); [7]) of -1.4% and an inhibition at 0.0412 µM (NCI-H1792 (Lung); [7]) of 2.27%. It also gave an inhibition at 0.1235 µM (NCI-H1792 (Lung); [7]) of 6.64%, an inhibition at 0.3704 µM (NCI-H1792 (Lung); [7]) of 7.05% and an inhibition at 1.1111 µM (NCI-H1792 (Lung); [7]) of 12.2%. For the same molecule, the inhibition at 3.3333 µM (NCI-H1792 (Lung); [7]) was 22.4%, the inhibition at 10 µM (NCI-H1792 (Lung); [7]) was 34% and the IC50 (UM-UC-3 (bladder)) was > 10 µM. The IC50 (NCI-H23 (Lung); NCI-H23, 72 h, read-out: Absolute IC50 (μM)) was > 10 µM, the inhibition at 0.0046 µM (NCI-H23 (Lung); [8]) was 6.06% and the inhibition at 0.0137 µM (NCI-H23 (Lung); [8]) was 7.11%. It also gave an inhibition at 0.0412 µM (NCI-H23 (Lung); [8]) of 12.1%, an inhibition at 0.1235 µM (NCI-H23 (Lung); [8]) of 15.4% and an inhibition at 0.3704 µM (NCI-H23 (Lung); [8]) of 14.9%. For the same molecule, the inhibition at 1.1111 µM (NCI-H23 (Lung); [8]) was 23.4%, the inhibition at 3.3333 µM (NCI-H23 (Lung); [8]) was 28.6% and the inhibition at 10 µM (NCI-H23 (Lung); [8]) was 37.2%. For the same molecule, the IC50 (MIA PaCa-2 (Pancreas); MIA PaCa-2, 72 h, read-out: Absolute IC50 (μM)) was > 10 µM, the inhibition at 0.0046 µM (MIA PaCa-2 (Pancreas); [9]) was -5.76% and the inhibition at 0.0137 µM (MIA PaCa-2 (Pancreas); [9]) was -10.3%. It also gave an inhibition at 0.0412 µM (MIA PaCa-2 (Pancreas); [9]) of -8.58%, an inhibition at 0.1235 µM (MIA PaCa-2 (Pancreas); [9]) of -9.5% and an inhibition at 0.3704 µM (MIA PaCa-2 (Pancreas); [9]) of -5.32%. The inhibition at 1.1111 µM (MIA PaCa-2 (Pancreas); [9]) was 1.46%, the inhibition at 3.3333 µM (MIA PaCa-2 (Pancreas); [9]) was 13.9% and the inhibition at 10 µM (MIA PaCa-2 (Pancreas); [9]) was 30.6%. The “inhibitory effect on cell proliferation (in words)” value (NCI-H358 (Lung)) was “substantial inhibitory effect”, the inhibition at 0.0046 µM (HCC44 (Lung)) was -3.82% and the inhibition at 0.0137 µM (HCC44 (Lung)) was -4.27%. It also gave an inhibition at 0.0412 µM (HCC44 (Lung)) of -1.38%, an inhibition at 0.1235 µM (HCC44 (Lung)) of 1.74% and an inhibition at 0.3704 µM (HCC44 (Lung)) of 10.1%. It also gave an inhibition at 1.1111 µM (HCC44 (Lung)) of 19.7%, an inhibition at 3.3333 µM (HCC44 (Lung)) of 33.1% and an inhibition at 10 µM (HCC44 (Lung)) of 43.7%. The IC50 (SW837 (Rectum)) was > 10 µM, the inhibition at 0.0046 µM (NCI-H2122 (Lung)) was -2.13% and the inhibition at 0.0137 µM (NCI-H2122 (Lung)) was 2.34%. The inhibition at 0.0412 µM (NCI-H2122 (Lung)) was 13.6%, the inhibition at 0.1235 µM (NCI-H2122 (Lung)) was 24% and the inhibition at 0.3704 µM (NCI-H2122 (Lung)) was 36.5%. For the same molecule, the inhibition at 1.1111 µM (NCI-H2122 (Lung)) was 45.6%, the inhibition at 3.3333 µM (NCI-H2122 (Lung)) was 52.5% and the inhibition at 10 µM (NCI-H2122 (Lung)) was 63.2%. For the same molecule, the IC50 (NCI-H1373 (Lung); NCI-H1373, 72 h, read-out: Absolute IC50 (μM)) was > 10 µM, the inhibition at 0.0046 µM (NCI-H1373 (Lung); [10]) was -3.29% and the inhibition at 0.0137 µM (NCI-H1373 (Lung); [10]) was -6.68%. It also gave an inhibition at 0.0412 µM (NCI-H1373 (Lung); [10]) of -5.53%, an inhibition at 0.1235 µM (NCI-H1373 (Lung); [10]) of -6.17% and an inhibition at 0.3704 µM (NCI-H1373 (Lung); [10]) of -5.69%. It also gave an inhibition at 1.1111 µM (NCI-H1373 (Lung); [10]) of -4.7%, an inhibition at 3.3333 µM (NCI-H1373 (Lung); [10]) of -9.75% and an inhibition at 10 µM (NCI-H1373 (Lung); [10]) of 8.28%. For the same molecule, the inhibition at 0.0046 µM [3] was 0.76%, the inhibition at 0.0137 µM [3] was 4.1% and the inhibition at 0.0412 µM [3] was 10.8%. For the same molecule, the inhibition at 0.1235 µM [3] was 17.1%, the inhibition at 0.3704 µM [3] was 25% and the inhibition at 1.1111 µM [3] was 38.9%. For the same molecule, the inhibition at 3.3333 µM [3] was 50.4%, the inhibition at 10 µM [3] was 61% and the inhibition at 0.0046 µM [4] was -3.3%. For the same molecule, the inhibition at 0.0137 µM [4] was -0.64%, the inhibition at 0.0412 µM [4] was 8.04% and the inhibition at 0.1235 µM [4] was 9.71%. The inhibition at 0.3704 µM [4] was 15.9%, the inhibition at 1.1111 µM [4] was 19% and the inhibition at 3.3333 µM [4] was 21.8%. It also gave an inhibition at 10 µM [4] of 27.5%, an inhibition at 0.0046 µM (Calu-1 (Lung) cell lines) of -8.39% and an inhibition at 0.0137 µM (Calu-1 (Lung) cell lines) of -5.3%. For the same molecule, the inhibition at 0.0412 µM (Calu-1 (Lung) cell lines) was -3.3%, the inhibition at 0.1235 µM (Calu-1 (Lung) cell lines) was -0.27% and the inhibition at 0.3704 µM (Calu-1 (Lung) cell lines) was 3.9%. For the same molecule, the inhibition at 1.1111 µM (Calu-1 (Lung) cell lines) was 31%, the inhibition at 3.3333 µM (Calu-1 (Lung) cell lines) was 11.6% and the inhibition at 10 µM (Calu-1 (Lung) cell lines) was 22.6%. The “inhibition of the PI3K target” value (PI3K) was “greater than 80%”, the inhibition at 0.0046 µM [5] was -1.36% and the inhibition at 0.0137 µM [5] was 3.14%. For the same molecule, the inhibition at 0.0412 µM [5] was 9.47%, the inhibition at 0.1235 µM [5] was 17.1% and the inhibition at 0.3704 µM [5] was 29.4%. The inhibition at 1.1111 µM [5] was 50.5%, the inhibition at 3.3333 µM [5] was 65.8% and the inhibition at 10 µM [5] was 71.3%. It also gave an inhibition at 0.0046 µM [6] of -5.05%, an inhibition at 0.0137 µM [6] of -5.07% and an inhibition at 0.0412 µM [6] of -7.94%. The inhibition at 0.1235 µM [6] was -4.04%, the inhibition at 0.3704 µM [6] was 0.18% and the inhibition at 1.1111 µM [6] was 9.37%. The inhibition at 3.3333 µM [6] was 27.4% and the inhibition at 10 µM [6] was 44.8%.
